According to patent publication US6165982A, “Use of sericin as antioxidants and tyrosinase inhibitors” (Seiren Co., Ltd., priority 1996, dated 2000):

Tested on: rat brain homogenate
Assay: Inhibitory test of lipid peroxide in rat brain homogenate (TBARS, TBA method)
Type: biochemical
Conditions: for Inhibitory rate on an increase in lipid peroxide: 37° C., 2 hours, TBARS
Procedure: To 1 g of the rat brain stored under refrigeration was added 9 ml of 0.075M phosphate buffer (pH 7.5) and the mixture was homogenated under ice-cooling (hereinafter referred to as homogenate). To 0.5 ml of the homogenate obtained above was added 3.5 ml each of 0.075M phosphate buffers containing Sericin L and Sericin H (pH 7.5), respectively. Incubation was continued at 37° C. for 2 hours. At the end of this time, the respective final concentrations of sericin were made to 0.02~0.5%. Immediately before the isolation and after the incubation for 2 hours, 0.5 ml each of the samples was recovered and then TBARS (thiobarbituric acid reactive substance), an indicator of lipid peroxide level, was determined according to the TBA (thiobarbituric acid) method. Antioxidizing ability of sericin was calculated from the TBARS amount obtained when no sericin was added and the TBARS amount obtained when sericin was added according to the following equation 1 and expressed in terms of an inhibitory rate on an increase in lipid peroxide by incubation. In all cases of this Test Example and the following Test Examples 2~5, tests were repeated three times and the results were shown with an average value of the numerical values thus obtained. Inhibitory rate (%)=(1-A/B)×100 Equation 1 A: Increased TBARS amount obtained when a lipid peroxide inhibitory agent (an antioxidant) was added B: Increased TBARS amount obtained when no lipid peroxide inhibitory agent (an antioxidant) was added To 0.5 ml of a sample were added 2.5 ml of a 8% trichloroacetic acid solution and 2.0 ml of a 0.67% thiobarbituric acid solution and the resulting mixture was thoroughly mixed and then heated in a boiling water bath for 15 minutes. Thereafter, the mixture was centrifuged at 2000× g for 10 minutes and the supernatant was measured for absorbance at 535 nm to determine a TBARS amount. 1,1,3,3-Tetraethoxypropane was used as a standard. To 0.5 ml of the homogenate obtained above was added 3.5 ml each of 0.075M phosphate buffers (pH 7.5) containing Sericin L, ascorbic acid (vitamin C) and bovine serum albumin, respectively. Incubation was continued at 37° C. for 2 hours. The final concentrations of Sericin L, ascorbic acid and albumin were made to 0.01%~1.0%. After incubation, a TBARS amount was determined according to the TBA method, similarly to Test Example 1 and inhibitory rates on an increase in lipid peroxide were determined, respectively.

With `O=C1O[C@H]([C@@H](O)CO)C(O)=C1O` [Ascorbic acid, ascorbic acid] the “Inhibitory rate on an increase in lipid peroxide” value (from here on “Inhibitory rate on an increase”) (final concentration 0.01%) was -39%, the “Inhibitory rate on an increase” value (final concentration 0.05%) was 39% and the “Inhibitory rate on an increase” value (final concentration 0.1%) was 87%. For the same compound, the “Inhibitory rate on an increase” value (final concentration 0.5%) was 97%, the “Inhibitory rate on an increase” value (final concentration 1.0%) was 96% and the “Effect on oxidation at low concentration (in words)” value (low concentration range of 0.01%) was “oxidation may be accelerated”.
